The results in this text go back to patent US12357711B2, “PSMA binding dual mode radiotracer and therapeutic” (Technische Universität München, priority 2019, dated 2025).

In the data set the test system is LNCaP tumor-bearing SCID mice. Briefly: Biodistribution at 1 h p.i. The format is in vivo. Conditions: for Biodistribution tumor: LNCaP tumor. The procedure:
FIG. 10: Biodistribution (in % ID/g) of ^18E-labeled rhPSMA tracers at 1 h p.i in LNCaP tumor-bearing SCID mice. Data are expressed as mean±SD (n=4 for rhPSMA7.1, n=5 for 7.2, n=4 for 7.3, n=5 for 7.4 and n=3 for 7-rac).

Compound `CC(C)(C)[Si](F)(c1ccc(C(=O)NC[C@@H](NC(=O)CC[C@@H](C(=O)O)N2CCN(CC(=O)[O-])CCN(CC(=O)[O-])CCN(CC(=O)[O-])CC2)C(=O)N[C@H](CCCCNC(=O)CCC(=O)NCCC[C@@H](NC(=O)CC[C@H](NC(=O)N[C@@H](CCC(=O)O)C(=O)O)C(=O)O)C(=O)O)C(=O)O)cc1)C(C)(C)C.[Ga+3]` [rhPSMA7.3, [^19F][^natGa]D-Dap-S-DOTAGA-rhPSMA7] returned a Biodistribution adrenals of 2.2 ± 0.83 % ID/g, a Biodistribution blood of 0.96 ± 0.24 % ID/g, a Biodistribution bone of 0.38 ± 0.32 % ID/g and a Biodistribution heart of 0.87 ± 0.17 % ID/g. Besides, the Biodistribution intestine amounted to 0.35 ± 0.07 % ID/g, the Biodistribution kidneys came to 292 ± 45.1 % ID/g, the Biodistribution liver is on record as 0.69 ± 0.13 % ID/g and the Biodistribution lung came to 2.2 ± 0.35 % ID/g. This compound registered a Biodistribution muscle of 0.33 ± 0.15 % ID/g, a Biodistribution pancreas of 0.63 ± 0.44 % ID/g, a Biodistribution spleen of 16.6 ± 2.6 % ID/g and a Biodistribution stomach of 0.44 ± 0.23 % ID/g. Moreover, the Biodistribution tumor is on record as 18.3 ± 7.2 % ID/g.
“[^19F][^natGa]D/L-Dap-R/S-DOTAGA-rhPSMA7 [rhPSMA7-rac]”: the Biodistribution adrenals stood at 3.0 ± 0.45 % ID/g, the Biodistribution blood came to 1.1 ± 0.03 % ID/g, the Biodistribution bone was found to be 0.91 ± 0.11 % ID/g and the Biodistribution heart was determined as 0.69 ± 0.07 % ID/g. In addition, the Biodistribution intestine was 0.60 ± 0.27 % ID/g, the Biodistribution kidneys is listed as 71.3 ± 13.3 % ID/g, the Biodistribution liver was determined as 0.67 ± 0.07 % ID/g and the Biodistribution lung worked out at 1.4 ± 0.17 % ID/g. In addition, the Biodistribution muscle came to 0.36 ± 0.06 % ID/g, the Biodistribution pancreas is 0.60 ± 0.10 % ID/g, the Biodistribution spleen is on record as 11.1 ± 2.3 % ID/g and the Biodistribution stomach turned out to be 0.49 ± 0.07 % ID/g. The Biodistribution tumor is given as 10.4 ± 0.67 % ID/g.
